Laboratory results as given in BindingDB's records for PubMed 20126400 (University of Oklahoma, 2010).

Key:
Assay in all cases: Ray2010 Assay 74
[1] = target: Kappa-type opioid receptor (Homo sapiens, UniProt P41145)
Excerpt: (§1) Table S2 shows raw Ki data for the current study combined with data collected from the literature for the ten additional compounds.

[2] = target: T1, 5-hydroxytryptamine receptor 3A (Homo sapiens, UniProt P46098)
T1 sequence (P46098 whole entry): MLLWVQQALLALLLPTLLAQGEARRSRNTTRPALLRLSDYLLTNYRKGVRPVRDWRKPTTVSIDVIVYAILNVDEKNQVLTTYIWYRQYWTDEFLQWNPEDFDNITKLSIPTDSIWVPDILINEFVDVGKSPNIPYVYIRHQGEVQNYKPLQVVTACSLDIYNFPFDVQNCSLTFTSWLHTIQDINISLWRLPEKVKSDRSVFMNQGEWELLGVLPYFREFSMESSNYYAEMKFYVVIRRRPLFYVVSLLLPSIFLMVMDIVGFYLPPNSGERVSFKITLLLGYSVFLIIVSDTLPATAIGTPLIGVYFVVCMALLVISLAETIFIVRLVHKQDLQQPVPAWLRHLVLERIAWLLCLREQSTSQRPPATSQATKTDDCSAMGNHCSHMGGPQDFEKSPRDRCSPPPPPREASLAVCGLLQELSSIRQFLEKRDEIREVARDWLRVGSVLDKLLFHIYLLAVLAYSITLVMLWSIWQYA
Excerpt: as §1

[3] = target: 5-hydroxytryptamine receptor 1B (Homo sapiens, UniProt P28222)
Excerpt: as §1

[4] = target: Delta-type opioid receptor (Homo sapiens, UniProt P41143)
Excerpt: as §1

[5] = target: T2, Alpha-1B adrenergic receptor (Homo sapiens, UniProt P35368)
T2 sequence (P35368 whole entry): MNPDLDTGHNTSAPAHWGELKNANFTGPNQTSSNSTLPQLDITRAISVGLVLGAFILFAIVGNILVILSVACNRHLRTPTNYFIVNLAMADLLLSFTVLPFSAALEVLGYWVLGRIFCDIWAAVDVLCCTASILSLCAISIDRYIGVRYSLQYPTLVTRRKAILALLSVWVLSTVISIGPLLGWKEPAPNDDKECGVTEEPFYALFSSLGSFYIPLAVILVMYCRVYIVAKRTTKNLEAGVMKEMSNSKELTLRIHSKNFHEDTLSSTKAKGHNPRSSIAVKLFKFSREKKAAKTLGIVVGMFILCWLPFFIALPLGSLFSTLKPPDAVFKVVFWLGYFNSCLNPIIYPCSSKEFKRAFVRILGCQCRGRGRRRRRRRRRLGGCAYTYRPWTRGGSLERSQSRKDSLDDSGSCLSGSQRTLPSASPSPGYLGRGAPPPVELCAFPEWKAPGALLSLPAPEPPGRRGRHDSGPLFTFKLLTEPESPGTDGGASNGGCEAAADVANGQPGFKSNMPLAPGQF
Excerpt: as §1

[6] = target: 5-hydroxytryptamine receptor 2B (Homo sapiens, UniProt P41595)
Excerpt: as §1

[7] = target: Mu-type opioid receptor (Homo sapiens, UniProt P35372)
Excerpt: as §1

[8] = target: T3, Muscarinic acetylcholine receptor M2 (Homo sapiens, UniProt P08172)
T3 sequence (P08172 whole entry): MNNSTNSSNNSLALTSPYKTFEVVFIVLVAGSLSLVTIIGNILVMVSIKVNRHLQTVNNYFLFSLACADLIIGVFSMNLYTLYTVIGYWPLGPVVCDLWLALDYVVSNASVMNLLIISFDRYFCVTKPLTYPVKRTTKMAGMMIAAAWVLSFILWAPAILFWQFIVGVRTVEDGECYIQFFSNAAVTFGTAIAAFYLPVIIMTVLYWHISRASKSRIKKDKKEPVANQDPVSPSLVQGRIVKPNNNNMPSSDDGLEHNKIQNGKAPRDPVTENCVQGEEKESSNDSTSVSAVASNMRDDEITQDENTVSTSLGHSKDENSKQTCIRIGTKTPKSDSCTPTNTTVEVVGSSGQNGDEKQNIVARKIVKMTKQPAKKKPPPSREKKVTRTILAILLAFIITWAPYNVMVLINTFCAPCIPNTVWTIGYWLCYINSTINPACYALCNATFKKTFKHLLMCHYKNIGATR
Excerpt: as §1

[9] = target: T4, Muscarinic acetylcholine receptor M1 (Homo sapiens, UniProt P11229)
T4 sequence (P11229 whole entry): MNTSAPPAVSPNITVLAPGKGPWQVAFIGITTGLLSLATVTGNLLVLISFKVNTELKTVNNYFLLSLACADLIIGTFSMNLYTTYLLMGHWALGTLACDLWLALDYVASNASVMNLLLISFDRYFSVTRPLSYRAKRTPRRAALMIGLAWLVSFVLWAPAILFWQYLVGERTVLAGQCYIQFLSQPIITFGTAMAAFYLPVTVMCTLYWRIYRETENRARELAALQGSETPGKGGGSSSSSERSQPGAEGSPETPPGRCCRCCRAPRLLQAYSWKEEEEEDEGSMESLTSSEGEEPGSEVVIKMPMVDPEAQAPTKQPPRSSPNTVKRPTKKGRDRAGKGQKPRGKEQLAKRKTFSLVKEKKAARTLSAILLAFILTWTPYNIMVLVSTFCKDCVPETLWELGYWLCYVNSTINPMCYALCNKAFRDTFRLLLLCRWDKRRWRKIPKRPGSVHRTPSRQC
Excerpt: as §1

[10] = target: Beta-1 adrenergic receptor (Homo sapiens, UniProt P08588)
Excerpt: as §1

[11] = target: T5, Muscarinic acetylcholine receptor M5 (Homo sapiens, UniProt P08912)
T5 sequence (P08912 whole entry): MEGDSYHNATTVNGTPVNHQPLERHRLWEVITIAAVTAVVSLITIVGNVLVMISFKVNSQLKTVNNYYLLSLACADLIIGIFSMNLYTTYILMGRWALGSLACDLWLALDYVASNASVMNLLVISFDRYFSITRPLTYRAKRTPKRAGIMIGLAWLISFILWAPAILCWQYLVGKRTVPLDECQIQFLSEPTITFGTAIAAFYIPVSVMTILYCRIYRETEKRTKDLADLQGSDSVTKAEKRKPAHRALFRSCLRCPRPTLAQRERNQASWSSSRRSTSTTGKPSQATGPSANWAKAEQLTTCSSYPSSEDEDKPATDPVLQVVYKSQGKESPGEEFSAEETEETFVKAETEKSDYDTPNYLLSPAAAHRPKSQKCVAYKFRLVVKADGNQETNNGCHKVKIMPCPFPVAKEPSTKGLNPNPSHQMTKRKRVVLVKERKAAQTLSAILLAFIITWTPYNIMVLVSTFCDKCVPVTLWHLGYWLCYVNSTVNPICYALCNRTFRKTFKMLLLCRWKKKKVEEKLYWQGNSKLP
Excerpt: as §1

[12] = target: 5-hydroxytryptamine receptor 1D (Homo sapiens, UniProt P28221)
Excerpt: as §1

Sequence of Kappa-type opioid receptor (P41145 whole entry): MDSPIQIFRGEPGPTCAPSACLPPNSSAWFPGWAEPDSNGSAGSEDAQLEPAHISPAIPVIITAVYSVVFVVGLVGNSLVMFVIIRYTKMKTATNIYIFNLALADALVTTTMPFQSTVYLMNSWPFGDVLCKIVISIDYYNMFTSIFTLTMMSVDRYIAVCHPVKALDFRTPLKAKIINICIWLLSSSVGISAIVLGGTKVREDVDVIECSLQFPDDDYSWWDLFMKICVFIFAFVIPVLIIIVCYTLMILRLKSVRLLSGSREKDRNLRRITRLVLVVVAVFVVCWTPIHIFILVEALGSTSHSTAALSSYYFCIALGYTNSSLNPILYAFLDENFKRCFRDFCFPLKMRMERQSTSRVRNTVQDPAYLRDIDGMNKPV
Sequence of Mu-type opioid receptor (P35372 whole entry): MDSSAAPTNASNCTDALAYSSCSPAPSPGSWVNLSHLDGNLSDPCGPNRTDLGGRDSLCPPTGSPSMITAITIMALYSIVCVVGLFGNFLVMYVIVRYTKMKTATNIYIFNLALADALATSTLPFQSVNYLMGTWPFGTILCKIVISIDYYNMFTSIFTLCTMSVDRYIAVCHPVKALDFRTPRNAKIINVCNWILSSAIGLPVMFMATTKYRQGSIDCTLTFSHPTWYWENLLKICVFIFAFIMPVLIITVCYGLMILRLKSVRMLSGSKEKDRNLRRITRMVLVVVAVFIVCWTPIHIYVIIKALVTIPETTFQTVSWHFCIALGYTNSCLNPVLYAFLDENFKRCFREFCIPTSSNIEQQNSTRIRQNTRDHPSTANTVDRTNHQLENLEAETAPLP
Sequence of 5-hydroxytryptamine receptor 1D (P28221 whole entry): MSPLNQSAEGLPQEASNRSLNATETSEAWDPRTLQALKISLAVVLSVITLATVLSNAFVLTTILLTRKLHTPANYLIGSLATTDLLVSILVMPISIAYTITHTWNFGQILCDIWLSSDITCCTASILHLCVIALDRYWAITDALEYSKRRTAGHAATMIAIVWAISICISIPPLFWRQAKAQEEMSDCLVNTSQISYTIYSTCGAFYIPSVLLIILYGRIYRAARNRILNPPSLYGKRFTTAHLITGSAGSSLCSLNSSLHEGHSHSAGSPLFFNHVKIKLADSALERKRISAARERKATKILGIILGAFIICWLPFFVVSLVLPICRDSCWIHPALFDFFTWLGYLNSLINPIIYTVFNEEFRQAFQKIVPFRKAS
Sequence of 5-hydroxytryptamine receptor 1B (P28222 whole entry): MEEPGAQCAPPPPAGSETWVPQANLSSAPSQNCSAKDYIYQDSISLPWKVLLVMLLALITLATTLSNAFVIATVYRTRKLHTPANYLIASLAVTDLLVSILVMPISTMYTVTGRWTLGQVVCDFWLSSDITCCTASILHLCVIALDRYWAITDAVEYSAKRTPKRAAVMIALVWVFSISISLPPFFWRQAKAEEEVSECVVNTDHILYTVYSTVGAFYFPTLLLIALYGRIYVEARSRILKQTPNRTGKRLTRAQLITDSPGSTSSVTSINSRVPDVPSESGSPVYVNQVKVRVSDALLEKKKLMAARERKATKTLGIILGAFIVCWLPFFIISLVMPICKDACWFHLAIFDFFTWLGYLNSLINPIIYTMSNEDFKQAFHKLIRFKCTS
Sequence of Delta-type opioid receptor (P41143 whole entry): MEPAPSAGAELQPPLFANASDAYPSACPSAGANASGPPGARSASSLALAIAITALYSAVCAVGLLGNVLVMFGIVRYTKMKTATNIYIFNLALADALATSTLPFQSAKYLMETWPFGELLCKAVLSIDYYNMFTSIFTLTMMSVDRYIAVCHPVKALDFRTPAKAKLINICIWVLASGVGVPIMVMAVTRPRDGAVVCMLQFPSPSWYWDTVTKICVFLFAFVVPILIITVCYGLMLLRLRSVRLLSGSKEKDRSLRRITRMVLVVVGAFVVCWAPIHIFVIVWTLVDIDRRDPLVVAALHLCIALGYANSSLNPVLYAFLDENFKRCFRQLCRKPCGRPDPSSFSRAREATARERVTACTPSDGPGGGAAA
Sequence of 5-hydroxytryptamine receptor 2B (P41595 whole entry): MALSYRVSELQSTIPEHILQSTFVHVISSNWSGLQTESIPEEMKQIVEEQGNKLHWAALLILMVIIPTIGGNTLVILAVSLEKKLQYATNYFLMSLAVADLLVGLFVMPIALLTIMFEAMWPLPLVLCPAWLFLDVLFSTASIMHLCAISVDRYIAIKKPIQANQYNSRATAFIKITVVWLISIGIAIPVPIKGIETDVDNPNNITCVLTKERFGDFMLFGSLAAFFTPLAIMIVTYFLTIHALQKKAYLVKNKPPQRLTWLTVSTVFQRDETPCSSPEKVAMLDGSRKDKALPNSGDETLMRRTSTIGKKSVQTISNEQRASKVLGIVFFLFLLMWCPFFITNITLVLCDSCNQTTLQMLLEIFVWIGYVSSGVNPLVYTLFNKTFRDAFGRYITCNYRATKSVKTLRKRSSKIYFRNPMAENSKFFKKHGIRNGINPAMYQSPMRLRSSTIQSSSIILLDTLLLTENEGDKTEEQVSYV
Sequence of Beta-1 adrenergic receptor (P08588 whole entry): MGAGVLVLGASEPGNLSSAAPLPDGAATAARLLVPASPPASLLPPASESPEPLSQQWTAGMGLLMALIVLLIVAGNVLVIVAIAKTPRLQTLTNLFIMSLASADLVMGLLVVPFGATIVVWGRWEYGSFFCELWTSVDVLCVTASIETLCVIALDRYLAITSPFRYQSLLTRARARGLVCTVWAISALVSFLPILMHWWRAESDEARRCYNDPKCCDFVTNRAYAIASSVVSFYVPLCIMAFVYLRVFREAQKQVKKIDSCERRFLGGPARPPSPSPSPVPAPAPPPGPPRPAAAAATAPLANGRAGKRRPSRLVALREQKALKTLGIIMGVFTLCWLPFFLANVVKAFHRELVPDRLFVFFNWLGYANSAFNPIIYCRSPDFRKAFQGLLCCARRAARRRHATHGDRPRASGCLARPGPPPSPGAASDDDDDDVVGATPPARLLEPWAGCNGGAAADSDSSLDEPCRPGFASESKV

Row | Structure (SMILES) | Ki [1] | Ki [2] | Ki [3] | Ki [4] | Ki [5] | Ki [6] | Ki [7] | Ki [8] | Ki [9] | Ki [10] | Ki [11] | Ki [12]
1 | C[C@@H]1C[C@H](C)N1C(=O)C1C=C2c3cccc4[nH]cc(c34)C[C@H]2N(C)C1 (stereo partly drawn) [cis-2a] | > 10 µM | > 10 µM | 3.7 nM | > 10 µM | > 10 µM | 44 nM | > 10 µM |  |  |  |  | 
2 | COc1ccc2[nH]cc(CCN(C)C)c2c1 [3-(2-DIMETHYLAMINOETHYL)-5-METHOXYINDOLE] | > 10 µM |  |  |  | > 10 µM |  |  | > 10 µM | > 10 µM | > 10 µM | > 10 µM | 
3 | CNC(C)Cc1ccc2c(c1)OCO2 (stereo not drawn) [mdma] | > 10 µM | > 10 µM | > 10000 nM |  | > 10 µM | 500 nM | > 10 µM | > 10 µM | > 10 µM | > 10 µM | 6.33 µM | > 10000 nM
4 | COc1cc(OC)c(OC)cc1CC(C)N (stereo not drawn) [(+/-)1-Methyl-2-(2,4,5-trimethoxy-phenyl)-ethylamine] |  | > 10 µM | > 10000 nM |  | > 10 µM | 154 nM |  | > 10 µM |  | > 10 µM | > 10 µM | > 10000 nM
5 | CN(C)CCc1c[nH]c2cccc(O)c12 [4-hydroxy-N,N-dimethyltryptamine] | > 10 µM | > 10 µM |  | > 10 µM | > 10 µM |  | > 10 µM | > 10 µM | > 10 µM | > 10 µM |  | 
6 | COc1cc(CCN)cc(OC)c1OC [3,4,5-trimethoxyphenylethylamine] | > 10 µM | > 10 µM | > 10000 nM | > 10 µM | > 10 µM |  | > 10 µM | > 10 µM | > 10 µM | > 10 µM | > 10 µM | > 10000 nM
7 | CC(N)Cc1ccc2c(c1)OCO2 (stereo not drawn) | > 10 µM | > 10 µM | > 10000 nM |  | > 10 µM | 91 nM |  | > 10 µM |  | > 10 µM | > 10 µM | > 10000 nM
8 | CC[C@H]1C[C@@H]2C[C@H]3c4[nH]c5ccc(OC)cc5c4CCN(C2)[C@@H]13 |  | > 10 µM | > 10000 nM | > 10 µM |  |  | 4.36 µM | 39.4 µM | 22.5 µM | > 10 µM |  | > 10000 nM
9 | CCc1cc(OC)c(CC(C)N)cc1OC (stereo not drawn) | > 10 µM | > 10 µM | 2800 nM | > 10 µM | > 10 µM | 28.8 nM | > 10 µM | > 10 µM |  | 5.72 µM | > 10 µM | 6620 nM
10 | COc1cc(CC(C)N)cc(OC)c1OC (stereo not drawn) | > 10 µM | > 10 µM | 2860 nM | > 10 µM | > 10 µM | 477 nM | > 10 µM | > 10 µM |  | > 10 µM | > 10 µM | 3030 nM
11 | NCCc1c2c(c(Br)c3c1OCC3)OCC2 [2-(8-Bromo-2,3,6,7-tetrahydro-benzo[1,2-b;4,5-b']difuran-4-yl)-ethylamine] | > 10 µM | > 10 µM | 185 nM | > 10 µM | > 10 µM | 0.9 nM | > 10 µM | 2.03 µM |  | > 10 µM | 0.873 µM | 1.4 nM
12 | CN(C)CCc1c[nH]c2ccccc12 [2-(1H-indol-3-yl)-N,N-dimethylethanamine] | > 10 µM | > 10 µM | > 10000 nM |  | 0.974 µM |  |  | > 10 µM | > 10 µM | > 10 µM | > 10 µM | 93 nM
13 | CCc1[nH]c2ccc(OC)cc2c1CCN(C)C [2-ethyl-5-methoxy-N,N-dimethyltryptamine] | > 10 µM |  | > 10000 nM | > 10 µM |  |  | > 10 µM | > 10 µM | > 10 µM |  | > 10 µM | 
14 | COC(=O)[C@@H]1C[C@H](OC(C)=O)C(=O)[C@H]2[C@@]1(C)CC[C@H]1C(=O)O[C@H](c3ccoc3)C[C@]21C [2S,4aR,6a(R,7R,9S,10aS,10bR)-9-(acetyloxy)-2-(furan-3-yl)dodecahydro-6a,10b-dimethyl-4,10-dioxo-2H-naphtho[2,1-c]pyran-7-carboxylic acid methyl ester] |  |  | > 10000 nM |  | > 10 µM | > 10000 nM |  | > 10 µM | > 10 µM | > 10 µM | > 10 µM | > 10000 nM
15 | CCN(CC)C(=O)[C@@H]1C=C2c3cccc4[nH]cc(c34)C[C@H]2N(C)C1 [[N-methyl-3H]LSD] | > 10 µM | > 10 µM | 3.9 nM | > 10 µM | 8.68 µM |  | > 10 µM |  |  |  |  | 7.8 nM
16 | COc1ccc2[nH]c(C)c(CCN(C)C)c2c1 [[2-(5-Methoxy-2-methyl-1H-indol-3-yl)-ethyl]-dimethyl-amine (C2H2O)] | > 10 µM |  | > 10000 nM | > 10 µM |  |  | > 10 µM | > 10 µM | > 10 µM |  | > 10 µM | 
17 | COc1cc(CCN)c(OC)cc1Br | > 10 µM | > 10 µM | 104 nM | > 10 µM | > 10 µM | 13.5 nM | > 10 µM | > 10 µM | > 10 µM |  | > 10 µM | 26.3 nM
18 | C[C@@H]1C[C@@H](C)N1C(=O)C1C=C2c3cccc4[nH]cc(c34)C[C@H]2N(C)C1 (stereo partly drawn) [rr-2b] | > 10 µM | > 10 µM | 2 nM | > 10 µM | > 10 µM | 312 nM | > 10 µM |  |  |  |  | 18 nM
